Experimental data from patent US20090227600A1, “4-(PYRAZINE-2-YL) -PYRROLIDINE -2-CARBOXYLIC ACID COMPOUNDS AND DERIVATIVES THEREOF AS HEPATITIS C VIRUS INHIBITORS” (priority 2004, published 2009).

System: Huh-7 HCV replicon cells (sub-line 5-15; genotype 1b)
Assay: Replicon ELISA cell based assay, genotype 1b
Set-up: species or system HCV genotype 1b
Conditions: Hepatitis C virus, Huh-7 genotype 1b replicon (sub-line 5-15), 72 hours
Protocol: 100 μL of medium containing 10% FCS were added to each well of clear, flat-bottomed 96 well microplates, excepting wells in the top row. Test compound was diluted in assay medium to twice the final required starting concentration from a 40 mM stock solution in DMSO. 200 μL of the starting dilution were introduced into two wells each in the top row and doubling dilutions made down the plate by the sequential transfer of 100 μL aliquots with thorough mixing in the wells; the final 100 μL were discarded. The two bottom rows were not used for compound dilutions. Huh-7 HCV replicon cell monolayers nearing confluency were stripped from growth flasks with versene-trypsin solution and the cells were resuspended in assay medium at either 2×10^5 cells/mL (sub-line 5-15; genotype 1b; Lohmann, V., Komer, F., Koch, J-O., Herian, U., Thielmann, L. And Bartenschlager, R., 1999, Science, 285, pp 110-113) or at 3×10^5 cells/mL (genotype 1a; Gu, B., Gates, A. T., Isken, O., Behrens, S. E. and Sarisky, R. T., J. Virol., 2003, 77, 5352-5359). 100 μL of cell suspension were added to all wells and the plates incubated at 37° C. for 72 hours in a 5% CO2 atmosphere.
Following incubation, the assay medium was aspirated from the plates. The cell sheets were washed by gentle immersion in phosphate buffered saline (PBS), which was then aspirated off, and fixed with acetone:methanol (1:1) for 5 minutes. Following a further wash with PBS, 100 μL of ELISA diluent (PBS+0.05% v/v Tween 20+2% w/v skimmed milk powder) were added to all wells and the plates incubated at 37° C. for 30 minutes on an orbital platform. The diluent was removed and each well then received 50 μL of a 1/200 dilution of anti-HCV specific, murine, monoclonal antibody (either Virostat #1872 or #1877), except for wells in one of the compound-free control rows which received diluent alone to act as negative controls. The plates were incubated at 37° C. for 2 hours and washed 3 times with PBS/0.05% Tween 20, then 50 μL of horseradish peroxidase conjugated, anti-mouse, rabbit polyclonal serum (Dako #P0260), diluted 1/1000, were added to all wells. The plates were incubated for a further hour, the antibody removed and the cell sheets washed 5 times with PBS/Tween and blotted dry. The assay was developed by the addition of 50 μL of ortho-phenylenediamine/peroxidase substrate in urea/citrate buffer (SigmaFast, Sigma #P-9187) to each well, and colour allowed to develop for up to 15 minutes. The reaction was stopped by the addition of 25 μL per well of 2 M sulphuric acid and the plates were read at 490 nm on a Fluostar Optima spectrophotometer.
The substrate solution was removed and the plates were washed in tap water, blotted dry and the cells stained with 5% carbol fuchsin in water for 30 minutes. The stain was discarded and the cell sheets washed, dried and examined microscopically to assess cytotoxicity.
The absorbance values from all compound-free wells that had received both primary and secondary antibodies were averaged to obtain a positive control value. The mean absorbance value from the compound-free wells that had not received the primary antibody was used to provide the negative (background) control value. The readings from the duplicate wells at each compound concentration were averaged and, after the subtraction of the mean background from all values, were expressed as a percentage of the positive control signal. The quantifiable and specific reduction of expressed protein detected by the ELISA in the presence of a drug can be used as a measure of replicon inhibition. GraFit software was used to plot the curve of percentage inhibition against compound concentration and derive the 50% inhibitory concentration (IC50) for the compound.

Row | Structure (SMILES) | IC50 [nM]
1 | COc1cc(C(=O)N2[C@@H](c3nccs3)[C@@H](c3cnccn3)C[C@@]2(CC(C)C)C(=O)O)ccc1C(C)(C)C (racemic) [Compound A, rel-(2S,4S,5R)-2-Isobutyl-1-(4-tert-butyl-3-methoxybenzoyl)-4-(pyrazin-2-yl)-5-(1,3-thiazol-2-yl)pyrrolidine-2-carboxylic acid, reference compound] | 100 to 10000
2 | COc1cc(C(=O)N2[C@@H](c3nccs3)[C@@H](c3cnccn3)C[C@@]2(Cc2ccccn2)C(=O)O)ccc1C(C)(C)C (racemic) [Compound C, rel-(2R,4S,5R)-1-(4-tert-Butyl-3-methoxybenzoyl)-2-(pyridin-2-ylmethyl)-4-(pyrazin-2-yl)-5-(1,3-thiazol-2-yl)pyrrolidine-2-carboxylic acid, reference compound] | 100 to 10000
3 | COc1cc(C(=O)N2[C@@H](c3nccs3)[C@@H](c3cnccn3)C[C@@]2(Cc2c[nH]cn2)C(=O)O)ccc1C(C)(C)C (racemic) [Compound D, rel-(2R,4S,5R)-1-(4-tert-Butyl-3-methoxybenzoyl)-2-(1H-imidazol-4-yl-methyl)-4-(pyrazin-2-yl)-5-(1,3-thiazol-2-yl)-pyrrolidine-2-carboxylic acid, reference compound] | 100 to 10000
4 | COc1cc(C(=O)N2[C@@H](c3cncs3)[C@@H](c3cnccn3)C[C@@]2(CCSC)C(=O)O)ccc1C(C)(C)C (racemic) [Compound E, rel-(2R,4S,5R)-1-(4-tert-Butyl-3-methoxybenzoyl)-2-(2-(methylthio)ethyl)-4-(pyrazin-2-yl)-5-(1,3-thiazol-5-yl)-pyrrolidine-2-carboxylic acid, reference compound] | 100 to 10000
5 | COc1cc(C(=O)N2[C@@H](c3nccs3)[C@@H](c3cnccn3)C[C@@]2(CCS(C)(=O)=O)C(=O)O)ccc1C(C)(C)C (racemic) [Compound F, rel-(2R,4S,5R)-1-(4-tert-Butyl-3-methoxybenzoyl)-2-(2-(methylsulphonyl)ethyl)-4-pyrazin-2-yl-5-(1,3-thiazol-2-yl)-pyrrolidine-2-carboxylic acid, reference compound] | > 10000
6 | COc1cc(C(=O)N2[C@@H](c3nccs3)[C@@H](c3cnccn3)C[C@@]2(Cc2ccccc2)C(=O)O)ccc1C(C)(C)C (racemic) [Compound G, rel-(2R,4S,5R)-1-(4-tert-Butyl-3-methoxybenzoyl)-2-(phenylmethyl)-4-(pyrazin-2-yl)-5-(1,3-thiazol-2-yl)pyrrolidine-2-carboxylic acid, reference compound] | 100 to 10000
7 | COc1cc(C(=O)N2[C@@H](c3nccs3)[C@@H](c3cnccn3)C[C@@]2(Cc2cscn2)C(=O)O)ccc1C(C)(C)C (racemic) [Example 1, rel-(2R,4S,5R)-1-(3-Methoxy-4-tert-butylbenzoyl)-4-(pyrazin-2-yl)-2-(1,3-thiazol-4-ylmethyl)-5-(1,3-thiazol-2-yl)pyrrolidine-2-carboxylic acid] | < 100
8 | COc1cc(C(=O)N2[C@@H](c3nccs3)[C@@H](c3cnccn3)C[C@@]2(Cc2nccs2)C(=O)O)ccc1C(C)(C)C (racemic) [Example 3, rel-(2R,4S,5R)-1-(3-Methoxy-4-tert-butylbenzoyl)-4-(pyrazin-2-yl)-2-(1,3-thiazol-2-ylmethyl)-5-(1,3-thiazol-2-yl)pyrrolidine-2-carboxylic acid] | < 100
9 | COc1cc(C(=O)N2[C@@H](c3ncc(C)s3)[C@@H](c3cnccn3)C[C@@]2(Cc2ccsn2)C(=O)O)ccc1C(C)(C)C (racemic) [Example 5, rel-(2R,4S,5R)-1-(3-Methoxy-4-tert-butylbenzoyl)-5-(5-methyl-1,3-thiazol-2-yl)-4-(pyrazin-2-yl)-2-(1,2-thiazol-3-ylmethyl)pyrrolidine-2-carboxylic acid] | < 100
10 | COc1cc(C(=O)N2[C@@H](c3nccs3)[C@@H](c3cnccn3)C[C@@]2(Cc2ccsn2)C(=O)O)ccc1C(C)(C)C (racemic) [Example 7, rel-(2R,4S,5R)-1-(3-Methoxy-4-tert-butylbenzoyl)-4-(pyrazin-2-yl)-2-(1,2-thiazol-3-ylmethyl)-5-(1,3-thiazol-2-yl)pyrrolidine-2-carboxylic acid] | < 100
11 | COc1cc(C(=O)N2[C@@H](c3ncc(C)s3)[C@@H](c3cnccn3)C[C@@]2(Cn2cccn2)C(=O)O)ccc1C(C)(C)C (racemic) [Example 9, rel-(2R,4S,5R)-1-(3-Methoxy-4-tert-butylbenzoyl)-5-(5-methyl-1,3-thiazol-2-yl)-4-(pyrazin-2-yl)-2-(1H-pyrazol-1-ylmethyl)pyrrolidine-2-carboxylic acid] | < 100
12 | COc1cc(C(=O)N2[C@@H](c3nccs3)[C@@H](c3cnccn3)C[C@@]2(Cn2cccn2)C(=O)O)ccc1C(C)(C)C (racemic) [Example 11, rel-(2R,4S,5R)-1-(3-Methoxy-4-tert-butylbenzoyl)-4-(pyrazin-2-yl)-2-(1H-pyrazol-1-ylmethyl)-5-(1,3-thiazol-2-yl)pyrrolidine-2-carboxylic acid] | < 100
13 | COc1cc(C(=O)N2[C@@H](c3ncc(C)s3)[C@@H](c3cnccn3)C[C@@]2(Cc2nccs2)C(=O)O)ccc1C(C)(C)C (racemic) [Example 13, rel-(2R,4S,5R)-1-(3-Methoxy-4-tert-butylbenzoyl)-5-(5-methyl-1,3-thiazol-2-yl)-4-(pyrazin-2-yl)-2-(1,3-thiazol-2-ylmethyl)pyrrolidine-2-carboxylic acid] | < 100
14 | COc1cc(C(=O)N2[C@@H](c3ncc(C)s3)[C@@H](c3cnccn3)C[C@@]2(Cc2cscn2)C(=O)O)ccc1C(C)(C)C (racemic) [Example 15, rel-(2R,4S,5R)-1-(3-Methoxy-4-tert-butylbenzoyl)-5-(5-methyl-1,3-thiazol-2-yl)-4-(pyrazin-2-yl)-2-(1,3-thiazol-4-ylmethyl)pyrrolidine-2-carboxylic acid] | < 100
15 | COc1cc(C(=O)N2[C@@H](c3nccs3)[C@@H](c3cnccn3)C[C@@]2(CC(C)C)C(=O)O)ccc1C(C)(C)C (single isomer, unassigned; enantiomer a) [Compound B, reference compound] | 100 to 10000
16 | COc1cc(C(=O)N2[C@@H](c3nccs3)[C@@H](c3cnccn3)C[C@@]2(Cc2cscn2)C(=O)O)ccc1C(C)(C)C (single isomer, unassigned; enantiomer a) [Example 2] | < 100
17 | COc1cc(C(=O)N2[C@@H](c3nccs3)[C@@H](c3cnccn3)C[C@@]2(Cc2nccs2)C(=O)O)ccc1C(C)(C)C (single isomer, unassigned; enantiomer a) [Example 4] | < 100
18 | COc1cc(C(=O)N2[C@@H](c3ncc(C)s3)[C@@H](c3cnccn3)C[C@@]2(Cc2ccsn2)C(=O)O)ccc1C(C)(C)C (single isomer, unassigned; enantiomer a) [Example 6] | < 100
19 | COc1cc(C(=O)N2[C@@H](c3nccs3)[C@@H](c3cnccn3)C[C@@]2(Cc2ccsn2)C(=O)O)ccc1C(C)(C)C (single isomer, unassigned; enantiomer a) [Example 8] | < 100
20 | COc1cc(C(=O)N2[C@@H](c3ncc(C)s3)[C@@H](c3cnccn3)C[C@@]2(Cn2cccn2)C(=O)O)ccc1C(C)(C)C (single isomer, unassigned; enantiomer a) [Example 10] | < 100
21 | COc1cc(C(=O)N2[C@@H](c3nccs3)[C@@H](c3cnccn3)C[C@@]2(Cn2cccn2)C(=O)O)ccc1C(C)(C)C (single isomer, unassigned; enantiomer a) [Example 12] | < 100
22 | COc1cc(C(=O)N2[C@@H](c3ncc(C)s3)[C@@H](c3cnccn3)C[C@@]2(Cc2nccs2)C(=O)O)ccc1C(C)(C)C (single isomer, unassigned; enantiomer a) [Example 14] | < 100
23 | COc1cc(C(=O)N2[C@@H](c3ncc(C)s3)[C@@H](c3cnccn3)C[C@@]2(Cc2cscn2)C(=O)O)ccc1C(C)(C)C (single isomer, unassigned; enantiomer a) [Example 16] | < 100
